Activity calls are given as the source filed them. The calls are words filed in the database; no cut-off is given here.
How the values were obtained:
[1] = system: NCI-H23; assay: Antiproliferative activity against human NCI-H23 cells harboring KRAS G12C mutant measured after 72 hrs by CCK-8 assay; type: functional, cell-based; details: NCI-H23, 72 h
[2] = system: A549; assay: Antiproliferative activity against human A549 cells harboring KRAS G12S mutant measured after 72 hrs by CCK-8 assay; type: functional, cell-based; details: A549, 72 h
[3] = system: NCI-H358; assay: Antiproliferative activity against human NCI-H358 cells harboring KRAS G12C mutant measured after 72 hrs by CCK-8 assay; type: functional, cell-based; details: NCI-H358, 72 h
[4] = molecular target: GTPase KRas (Homo sapiens, UniProt P01116, G12C); assay: Inhibition of KRAS G12C mutant (unknown origin) assessed as inhibition of SOS1-catalyzed nucleotide exchange measured by HTRF assay
Sequence of GTPase KRas (P01116 whole entry G12C): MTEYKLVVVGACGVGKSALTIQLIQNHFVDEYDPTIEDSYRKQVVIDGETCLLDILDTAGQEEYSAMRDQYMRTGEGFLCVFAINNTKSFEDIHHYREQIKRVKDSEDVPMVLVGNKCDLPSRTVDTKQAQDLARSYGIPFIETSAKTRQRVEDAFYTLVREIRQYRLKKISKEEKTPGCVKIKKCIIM

[5] = system: GTPase KRas (Homo sapiens), P01116 [G12C]; assay: Reversible covalent binding affinity to KRAS G12C mutant (unknown origin) incubated for 2 hrs and measured by MALDI-TOF-MS analysis
Sequence of GTPase KRas (Homo sapiens), P01116 [G12C] (P01116 whole entry G12C): as above

[6] = system: von Hippel-Lindau disease tumor suppressor/GTPase KRas (Homo sapiens), P01116+P40337 [G12C]; assay: Protac activity at VHL/KRAS G12C mutant in human NCI-H23 cells assessed as induction of KRAS G12C mutant degradation by measuring downregulation of phospho-ERK protein level at 3 uM measured after 24 hrs by Western blot analysis; type: cell-based
[7] = molecular target: T1, von Hippel-Lindau disease tumor suppressor/GTPase KRas (Homo sapiens, UniProt P01116+P40337, G12C); assay: Protac activity at VHL/KRAS G12C mutant in human NCI-H358 cells assessed as induction of KRAS G12C mutant degradation by measuring downregulation of phospho-ERK protein level measured after 24 hrs by Western blot analysis; type: cell-based
T1 sequence (P01116 whole entry G12C, stated change not applied): as the sequence (P01116 whole entry G12C) above
T1 sequence (P40337 whole entry, stated change not applied): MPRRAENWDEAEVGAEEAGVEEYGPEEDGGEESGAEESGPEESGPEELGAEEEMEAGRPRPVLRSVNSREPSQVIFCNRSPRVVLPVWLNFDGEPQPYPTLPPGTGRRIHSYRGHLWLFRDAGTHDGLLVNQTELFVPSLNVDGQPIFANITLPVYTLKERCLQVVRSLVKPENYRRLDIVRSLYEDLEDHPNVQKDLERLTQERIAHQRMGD

[8] = molecular target: T1, von Hippel-Lindau disease tumor suppressor/GTPase KRas; assay: Protac activity at VHL/KRAS G12C mutant in human NCI-H358 cells assessed as induction of KRAS G12C mutant degradation by measuring downregulation of KRAS G12C protein level measured after 24 hrs by Western blot analysis; type: cell-based
[9] = molecular target: T1, von Hippel-Lindau disease tumor suppressor/GTPase KRas; assay: Protac activity at VHL/KRAS G12C mutant in human NCI-H23 cells assessed as induction of KRAS G12C mutant degradation by measuring downregulation of phospho-ERK protein level measured after 24 hrs by Western blot analysis; type: cell-based
[10] = system: von Hippel-Lindau disease tumor suppressor/GTPase KRas (Homo sapiens), P01116+P40337 [G12C]; assay: Protac activity at VHL/KRAS G12C mutant in human NCI-H23 cells assessed as induction of KRAS G12C mutant degradation by measuring downregulation of KRAS G12C protein level at 3 uM measured after 24 hrs by Western blot analysis; type: cell-based
[11] = system: von Hippel-Lindau disease tumor suppressor/GTPase KRas (Homo sapiens), P01116+P40337 [G12C]; assay: Protac activity at VHL/KRAS G12C mutant in human NCI-H358 cells assessed as induction of KRAS G12C mutant degradation by measuring downregulation of phospho-ERK protein level at 3 uM measured after 24 hrs by Western blot analysis; type: cell-based
[12] = system: von Hippel-Lindau disease tumor suppressor/GTPase KRas (Homo sapiens), P01116+P40337 [G12C]; assay: Protac activity at VHL/KRAS G12C mutant in human NCI-H358 cells assessed as induction of KRAS G12C mutant degradation by measuring downregulation of KRAS G12C protein level at 3 uM measured after 24 hrs by Western blot analysis; type: cell-based
[13] = system: von Hippel-Lindau disease tumor suppressor/GTPase KRas (Homo sapiens), P01116+P40337 [G12C]; assay: Protac activity at VHL/KRAS G12C mutant in human NCI-H358 cells assessed as induction of KRAS G12C mutant degradation by measuring downregulation of KRAS G12C protein level at 3 uM in presence of cycloheximide measured after 24 hrs by Western blot analysis; type: cell-based
[14] = molecular target: T1, von Hippel-Lindau disease tumor suppressor/GTPase KRas; assay: Protac activity at VHL/KRAS G12C mutant in human NCI-H23 cells assessed as induction of KRAS G12C mutant degradation by measuring downregulation of KRAS G12C protein level measured after 24 hrs by Western blot analysis; type: cell-based

SMILES | IC50 [1] [µM] | IC50 [2] [µM] | IC50 [3] [µM] | IC50 [4] [µM] | Activity [5] | Activity [6] | DC50 [7] [µM] | DC50 [8] [µM] | DC50 [9] [µM] | Activity [10] | Activity [11] | Activity [12] | Activity [13] | DC50 [14] [µM]
CC=C(C#N)C(=O)N1CCN(c2nc(OC[C@@H]3CCCN3C)nc3c2CCN(c2cccc4cccc(Cl)c24)C3)C[C@@H]1CC#N | 9.55 | 8.2 | 5.13 | 0.0963 | – | – | – | – | – | – | – | – | – | –
CN1CCC[C@H]1COc1nc2c(c(N3CCN(C(=O)C(C#N)=CC4CC4)[C@@H](CC#N)C3)n1)CCN(c1cccc3cccc(Cl)c13)C2 | 5.25 | 13.3 | 4.7 | 0.0254 | Active | – | – | – | – | – | – | – | – | –
Cc1ncsc1-c1ccc(CNC(=O)[C@@H]2C[C@@H](O)CN2C(=O)[C@@H](NC(=O)CCOCCCN2CCC[C@H]2COc2nc3c(c(N4CCN(C(=O)/C(C#N)=C/C5CC5)[C@@H](CC#N)C4)n2)CCN(c2cccc4cccc(Cl)c24)C3)C(C)(C)C)cc1 | 0.244 | – | 0.154 | – | – | Active | 1.68 | 3.61 | 1.44 | Active | Active | Active | Active | 4.53
CCC=C(C#N)C(=O)N1CCN(c2nc(OC[C@@H]3CCCN3C)nc3c2CCN(c2cccc4cccc(Cl)c24)C3)C[C@@H]1CC#N | 7.4 | 25.3 | 13.4 | 0.271 | – | – | – | – | – | – | – | – | – | –
CN1CCC[C@H]1COc1nc2c(c(N3CCN(C(=O)C(C#N)=CC(C)(C)C)[C@@H](CC#N)C3)n1)CCN(c1cccc3cccc(Cl)c13)C2 | 6.33 | 16.1 | 0.796 | 0.64 | – | – | – | – | – | – | – | – | – | –
CC(C)C=C(C#N)C(=O)N1CCN(c2nc(OC[C@@H]3CCCN3C)nc3c2CCN(c2cccc4cccc(Cl)c24)C3)C[C@@H]1CC#N | 3.15 | 50 | 13.7 | 0.284 | – | – | – | – | – | – | – | – | – | –
C=CC(=O)N1CCN(c2nc(=O)n(-c3c(C)ccnc3C(C)C)c3nc(-c4c(O)cccc4F)c(F)cc23)[C@@H](C)C1 [SOTORASIB] | 0.112 | 50 | 0.0084 | – | – | – | – | – | – | – | – | – | – | –

Source: ChEMBL document CHEMBL5154696, “Efficient targeted oncogenic KRASG12C degradation via first reversible-covalent PROTAC” (Eur J Med Chem, 2022)
